Test results published in PMC9853328, “Potent Platinum(IV) Prodrugs That Incorporate a Biotin Moiety to Selectively Target Cancer Cells” (Pharmaceutics, 2022).
Where two headings read alike, the source gives them in different places.

Columns and labels:
[1] = system: non-cancerous MCF10A breast cell line; design: method as in earlier work; conditions: MTT, same method, taken from the literature; ref [18],[46],[47]; read-out: GI50 ± SEM, MCF10A; cited from earlier work
[2] = system: ADDP (subclone of A2780) versus A2780 ovarian cancer cell lines; assay: Resistance factor, GI50 in ADDP/GI50 in A2780; assay type: cell-based
[3] = system: cisplatin-resistant ADDP ovarian (subclone of A2780) cancer cells; design: method as in earlier work; conditions: MTT, same method, taken from the literature; ref [18],[46],[47]; read-out: GI50 ± SEM, ADDP; cited from earlier work
[4] = system: A431 skin cancer cells; design: method as in earlier work; conditions: MTT, same method, taken from the literature; ref [18],[46],[47]; read-out: GI50 ± SEM, A431; cited from earlier work
[5] = system: U87 glioblastoma cells; design: method as in earlier work; conditions: MTT, same method, taken from the literature; ref [18],[46],[47]; read-out: GI50 ± SEM, U87; cited from earlier work
[6] = system: H460 lung cancer cells; design: method as in earlier work; conditions: MTT, same method, taken from the literature; ref [18],[46],[47]; read-out: GI50 ± SEM, H460; cited from earlier work
[7] = system: BE2-C neuroblastoma cells; design: method as in earlier work; conditions: MTT, same method, taken from the literature; ref [18],[46],[47]; read-out: GI50 ± SEM, BE2-C; cited from earlier work
[8] = system: MCF-7 breast cancer cells; design: method as in earlier work; conditions: MTT, same method, taken from the literature; ref [18],[46],[47]; read-out: GI50 ± SEM, MCF-7; cited from earlier work
[9] = system: SJ-G2 glioblastoma cells; design: method as in earlier work; conditions: MTT, same method, taken from the literature; ref [18],[46],[47]; read-out: GI50 ± SEM, SJ-G2; cited from earlier work
[10] = system: Du145 prostate cancer cells; design: method as in earlier work; conditions: MTT, same method, taken from the literature; ref [18],[46],[47]; read-out: GI50 ± SEM, Du145; cited from earlier work
[11] = system: HT29 colon cancer cells; design: method as in earlier work; conditions: MTT, same method, taken from the literature; ref [18],[46],[47]; read-out: GI50 ± SEM, HT29; cited from earlier work
[12] = system: MIA pancreas cancer cells; design: method as in earlier work; conditions: MTT, same method, taken from the literature; ref [18],[46],[47]; read-out: GI50 ± SEM, MIA; cited from earlier work
[13] = system: A2780 ovarian cancer cells; design: method as in earlier work; conditions: MTT, same method, taken from the literature; ref [18],[46],[47]; read-out: GI50 ± SEM, A2780; cited from earlier work
[14] = system: cisplatin-resistant ADDP ovarian (subclone of A2780) cancer cells; assay: MTT in vitro cytotoxicity assay, ADDP; assay type: cell-based; conditions: 72 h drug exposure, n = 3, read-out: GI50 ± SEM, ADDP
Protocol: (§1) The in vitro cytotoxicity assays were undertaken at Calvary Mater Hospital, Waratah, NSW, Australia, following a method previously published in the literature. A stock solution for each compound was prepared in DMSO (30 mM) and stored at −20 °C. The cell lines used in the study include HT29 colon, U87 glioblastoma, MCF-7 breast, A2780 ovarian, H460 lung, A431 skin, Du145 prostate, BE2-C neuroblastoma, SJ-G2 glioblastoma, MIA pancreas, and cisplatin-resistant ADDP ovarian (subclone of A2780) cancer cells, as well as the non-cancerous-derived MCF10A breast cell line. The cancer cell lines were cultured in a humidified atmosphere 5% CO2 at 37 °C and maintained in Dulbecco’s modified Eagle’s medium (Trace Biosciences, Sydney, Australia), supplemented with 10% foetal bovine serum, sodium bicarbonate (10 mM), penicillin (100 IU/mL), streptomycin (100 µg/mL), and glutamine (4 mM). The non-cancerous MCF10A cell line was maintained in DMEM:F12 (1:1) cell culture media, with 5% heat inactivated horse serum, supplemented with penicillin (50 IU/mL), streptomycin (50 µg/mL), glutamine (2 mM), HEPES (20 mM), epidermal growth factor (20 ng/mL), hydrocortisone (500 ng/mL), cholera toxin (100 ng/mL), and insulin (10 µg/mL). Cells were plated in duplicate in medium (100 µL) at a density of 2500–4000 cells per well in 96-well plates. On day 0, (24 h after plating) when the cells were in logarithmic growth, medium (100 μL) with or without the test agent was added to each well. The growth inhibitory effects were evaluated after 72 h drug exposure, using the MTT (3-(4,5-dimethylthiazol-2-yl)-2,5-diphenyltetrazolium bromide) assay, with the absorbance read at 540 nm. An eight-point dose–response curve was produced, which was used to determine the concentration at which growth was inhibited by 50% (GI50). This calculation was based on the difference between the optical density values on day 0 and those at the end of drug exposure. […] Experiments were conducted on three separate occasions and GI50 values were reported as the mean and standard error of the mean.

[15] = system: Du145 prostate cancer cells; assay: MTT in vitro cytotoxicity assay, Du145; assay type: cell-based; conditions: for GI50: MTT; for number-fold potency against cisplatin, Du145 prostate: ratio of GI50 values
Protocol: as §1

[16] = system: MCF-7 breast cancer cells; assay: MTT in vitro cytotoxicity assay, MCF-7; assay type: cell-based; conditions: MTT, 72 h drug exposure, n = 3; read-out: GI50 ± SEM, MCF-7
[17] = system: SJ-G2 glioblastoma cells; assay: MTT in vitro cytotoxicity assay, SJ-G2; assay type: cell-based; conditions: 72 h drug exposure, n = 3, read-out: GI50 ± SEM, SJ-G2
Protocol: as §1

[18] = system: HT29 colon cancer cells; assay: MTT in vitro cytotoxicity assay, HT29; assay type: cell-based; conditions: for GI50: MTT, 72 h drug exposure, n = 3, read-out: GI50 ± SEM, HT29
Protocol: as §1

[19] = system: A431 skin cancer cells; assay: MTT in vitro cytotoxicity assay, A431; assay type: cell-based; conditions: 72 h drug exposure, n = 3, read-out: GI50 ± SEM, A431
Protocol: as §1

[20] = system: MIA pancreas cancer cells; assay: MTT in vitro cytotoxicity assay, MIA; assay type: cell-based; conditions: 72 h drug exposure, n = 3, read-out: GI50 ± SEM, MIA
Protocol: as §1

[21] = Lipophilicity by RP-HPLC (logkw); assay type: physicochemical; conditions: capacity factor in 100% water
Protocol: HPLC experiments were carried out using an Agilent Technologies (Melbourne, Australia) 1260 Infinity instrument, equipped with a Phenomenex (Sydney, Australia) Onyx^TM Monolithic C18 reverse phase column (100 × 4.6 mm, 130 Å). The mobile phase was made up of 0.06% TFA in water (solvent A) and 0.06% TFA in an acetonitrile:water (9:1) mixture (solvent B). Samples were eluted over a gradient of 0–100% (% B) for 15 min, at a flow rate of 1 mL/min, with a sample injection volume of 10 µL. Eluting peaks were detected using a PDA at 254 nm.
For lipophilicity experiments, RP-HPLC was utilised to determine the logkw of each compound, similarly to what has been previously published for similar complexes. Samples were eluted at various isocratic percentages, ranging from 18–30% solvent B. To determine the dead volume of the column, potassium iodide was used as an external dead volume marker. The retention time of each sample in each isocratic run ( tr ) and the dead volume time ( t0 ) were both substituted in Equation (1) to calculate the capacity factor ( k ). (1) k=tr−t0/t0
Following this, logk was plotted against the percentage of ACN. For each complex, a minimum of four concentrations of ACN were used. This produced a linear graph with the equation in the form:(2) logk=Sφ+logkw where S is the slope, φ is the percentage of ACN, and logkw is the y-intercept, which represents the capacity factor of the compound in 100% water.
It is important to explore the lipophilicity of a drug, as it is widely believed that increased lipophilicity results in greater cellular accumulation. To understand the lipophilicity of 1–4, RP-HPLC was utilised to determine the logkw of each complex. To calculate this, each complex was eluted at different isocratic percentages, whereby the retention time was used in Equation (1) to calculate the capacity factor (k). The percentage of the organic solvent was then plotted against log k for each isocratic percentage, producing a linear equation that allowed for logkw to be deduced using Equation (2) (Figure S38). The logkw value represents the capacity factor of the compound in 100% water and can be used to compare a series of compounds. Since 1–4 comprise the same axially bound ligand, biotin, the lipophilicity was influenced by the groups on the PL. The logkw of each complex is presented in Table 1, with their corresponding PL. The increasing lipophilicity of the complexes followed the order: 1 < 4 < 2 < 3.

[22] = system: BE2-C neuroblastoma cells; assay: MTT in vitro cytotoxicity assay, BE2-C; assay type: cell-based; conditions: 72 h drug exposure, n = 3, read-out: GI50 ± SEM, BE2-C
Protocol: as §1

[23] = system: A2780 ovarian cancer cells; assay: MTT in vitro cytotoxicity assay, A2780; assay type: cell-based; conditions: 72 h drug exposure, n = 3, read-out: GI50 ± SEM, A2780
Protocol: as §1

[24] = system: panel of cancer cell lines; assay: MTT cytotoxicity averaged across the panel of cancer cell lines; assay type: cell-based; conditions: for enhanced activity compared to platinum(II) precursor across the cancer cell lines: across all cancer cell lines; for GI50: calculated from the panel of cancer cell lines tested (Table S4)
[25] = system: U87 glioblastoma cells; assay: MTT in vitro cytotoxicity assay, U87; assay type: cell-based; conditions: 72 h drug exposure, n = 3, read-out: GI50 ± SEM, U87
Protocol: as §1

[26] = system: non-cancerous MCF10A breast cell line; assay: MTT in vitro cytotoxicity assay, MCF10A; assay type: cell-based; conditions: 72 h drug exposure, n = 3, read-out: GI50 ± SEM, MCF10A
Protocol: as §1

[27] = system: H460 lung cancer cells; assay: MTT in vitro cytotoxicity assay, H460; assay type: cell-based; conditions: 72 h drug exposure, n = 3, read-out: GI50 ± SEM, H460
Protocol: as §1

SMILES | GI50 [1] [nM] | Resistance factor (RF) [2] | GI50 [3] [nM] | GI50 [4] [nM] | GI50 [5] [µM] | GI50 [6] [nM] | GI50 [7] [nM] | GI50 [8] [µM] | GI50 [9] [nM] | GI50 [10] [nM] | GI50 [11] [nM] | GI50 [12] [µM] | GI50 [13] [nM] | GI50 [14] [nM] | number-fold potency against cisplatin, Du145 prostate ([15]; 72 h) [fold] | GI50 [16] [nM] | GI50 [17] [nM] | GI50 [18] [nM] | GI50 [19] [nM] | GI50 [20] [nM] | further results
N.N.[Cl][Pt][Cl] [Cisplatin, cisplatin] | 5200 ± 520 | 28.00 | 28000 ± 1700 | 2400 ± 300 | 3.8 ± 1.1 | 900 ± 200 | 1900 ± 200 | 6.5 ± 0.8 | 400 ± 100 | 1200 ± 100 | 11300 ± 1900 | 7.5 ± 1.3 | 1000 ± 100 | – | – | – | – | – | – | – | Resistance factor (RF) ([2]; listed as cisplatin): 28
O=C1N[C@H]2[C@H](CS[C@H]2CCCCC(=O)[O][Pt-2]23([OH])([NH2+][C@H]4CCCC[C@@H]4[NH2+]2)[n+]2cccc4ccc5ccc[n+]3c5c42)N1.O=[N+]([O-])[O-].O=[N+]([O-])[O-] [Complex 1, [Pt(1,10-phenthroline)(1S,2S-diaminocyclohexane)(biotin)(hydroxido)](NO3)2] | – | 0.96 | – | – | – | – | – | – | – | – | – | – | – | 240 ± 10 | 10 | 850 ± 140 | 290 ± 70 | 170 ± 60 | 600 ± 110 | 210 ± 30 | GI50 ([15]; 72 h drug exposure, n = 3, read-out: GI50 ± SEM, Du145): 120 ± 40 nM; number-fold potency against cisplatin, HT29 colon ([18]; ratio of GI50 values, 72 h): 66 fold; logkw [21]: 0.64; GI50 [22]: 1000 ± 100 nM; GI50 [23]: 250 ± 20 nM; enhanced activity compared to platinum(II) precursor across the cancer cell lines [24]: comparable activity; GI50 [24]: 455 nM; GI50 [25]: 970 ± 150 nM; GI50 [26]: 280 ± 40 nM; GI50 [27]: 300 ± 20 nM
Cc1c(C)c2ccc[n+]3c2c2c1ccc[n+]2[Pt-2]31([OH])([O]C(=O)CCCC[C@@H]2SC[C@@H]3NC(=O)N[C@@H]32)[NH2+][C@H]2CCCC[C@@H]2[NH2+]1.O=[N+]([O-])[O-].O=[N+]([O-])[O-] [Complex 2, [Pt(5,6-dimethyl-1,10-phenanthroline)(1S,2S-diaminocyclohexane)(biotin)(hydroxido)](NO3)2] | – | 0.55 | – | – | – | – | – | – | – | – | – | – | – | 11 ± 4 | 300 | 22 ± 8 | 36 ± 10 | 11 ± 5 | 36 ± 6 | 10 ± 2 | GI50 ([15]; 72 h, read-out: GI50, Du145 prostate cancer cell line): 4 nM; logkw [21]: 0.78; GI50 [22]: 100 ± 10 nM; GI50 [23]: 20 ± 4 nM; enhanced activity compared to platinum(II) precursor across the cancer cell lines [24]: ~ 2 fold; GI50 [24]: 27 nM; GI50 [25]: 32 ± 8 nM; GI50 [26]: 14 ± 4 nM; GI50 [27]: 18 ± 4 nM
[Cl-].[Cl-].c1cc2ccc3ccc[n+]4c3c2[n+](c1)[Pt-2]41[NH2+][C@H]2CCCC[C@@H]2[NH2+]1 [PHENSS(II)] | 240 ± 60 | 0.793 | 230 ± 49 | 340 ± 100 | 1.2 ± 0.34 | 300 ± 32 | 390 ± 60 | 0.25 ± 0.041 | 440 ± 55 | 110 ± 27 | 87 ± 27 | 0.24 ± 0.022 | 290 ± 37 | – | – | – | – | – | – | – | –
O=[N+]([O-])[O-].O=[N+]([O-])[O-].[OH][Pt-2]12([OH])([NH2+][C@H]3CCCC[C@@H]3[NH2+]1)[n+]1cccc3ccc4ccc[n+]2c4c31 [PHENSS(IV)] | 1700 ± 200 | 1.625 | 1300 ± 350 | 4300 ± 530 | 4.9 ± 0.61 | 1700 ± 200 | 3000 ± 530 | 16 ± 4.5 | 1700 ± 350 | 310 ± 92 | 710 ± 300 | 3.4 ± 2.2 | 800 ± 84 | – | – | – | – | – | – | – | –
